In patent publication US7300946B2, “N-(substituted arylmethyl)-4-(disubstituted methyl) piperidines and pyridines” (Bayer CropScience AG, priority 2002, dated 2007):

System: tobacco budworm (Heliothis virescens [Fabricius])
Assay: surface-treated diet test against the tobacco budworm
Type: in vivo
Details: tobacco budworm second instar larvae, surface-treated diet, 0.25 millimoles of candidate insecticide on the surface of the diet, five-day exposure; for Percent Mortality: compared to total number of insects infested; for Percent Growth Inhibition: inhibition of insect weight relative to untreated controls
How it was run: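 Wheat germ artificial diet surface-treated with 40 µL of 50 mM DMSO stock diluted 1:7 in 1:1 water/acetone (0.25 millimolar on diet), or sub-multiples for rate tests. One second-instar larva per well, 25° C, 60% RH, 5 days; percent weight inhibition vs DMSO controls and percent mortality.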

| Compound | Percent Mortality [%] | Percent Growth Inhibition [%] |
| --- | --- | --- |
| CCn1nnc(-c2ccc(CN3CCC(C(OC(=O)Nc4ccc(C(F)(F)F)cc4)c4ccc(C(F)(F)F)cc4)CC3)cc2)n1 (stereo not drawn) [Compound 289] | 100 | 100 |
| Cn1nnc(-c2ccc(CN3CCC(C(OC(=O)Nc4ccc(C(F)(F)F)cc4)c4ccc(OC(F)(F)F)cc4)CC3)cc2)n1 (stereo not drawn) [Compound 290] | 100 | 100 |
| CCn1nnc(-c2ccc(CN3CCC(C(OC(=O)Nc4ccc(C(F)(F)F)cc4)c4ccc(OC(F)(F)F)cc4)CC3)cc2)n1 (stereo not drawn) [Compound 291] | 100 | 95 |
| CCn1nnc(-c2ccc(CN3CCC(C(OC(=O)Nc4ccc(Cl)c(C(F)(F)F)c4)c4ccc(C(F)(F)F)cc4)CC3)cc2)n1 (stereo not drawn) [Compound 292] | 100 | 100 |
| CCn1nnc(-c2ccc(CN3CCC(C(OC(=O)Nc4cc(C(F)(F)F)cc(C(F)(F)F)c4)c4ccc(C(F)(F)F)cc4)CC3)cc2)n1 (stereo not drawn) [Compound 293] | 17 | 93 |
| Cn1nnc(-c2ccc(CN3CCC(C(OC(=O)Nc4ccc(OC(F)(F)F)cc4)c4ccc(OC(F)(F)F)cc4)CC3)cc2)n1 (stereo not drawn) [Compound 294] | 100 | 100 |
| CCn1nnc(-c2ccc(CN3CCC(C(OC(=O)Nc4ccc(OC(F)(F)F)cc4)c4ccc(OC(F)(F)F)cc4)CC3)cc2)n1 (stereo not drawn) [Compound 295] | 100 | 92 |
| CCn1nnc(-c2ccc(CN3CCC(C(OC(=O)Nc4ccc(-c5ccccc5)cc4)c4ccc(C(F)(F)F)cc4)CC3)cc2)n1 (stereo not drawn) [Compound 297] | 100 | 100 |
| CCn1nnc(-c2ccc(CN3CCC(C(OC(=O)Nc4ccc(Oc5ccccc5)cc4)c4ccc(C(F)(F)F)cc4)CC3)cc2)n1 (stereo not drawn) [Compound 298] | 100 | 100 |
| CCn1nnc(-c2ccc(CN3CCC(C(OC(=S)Nc4ccc(C(F)(F)F)cc4)c4ccc(OC(F)(F)F)cc4)CC3)cc2)n1 (stereo not drawn) [Compound 302] | 100 | 100 |
| CCn1nnc(-c2ccc(CN3CCC(C(OCc4ccc(C(F)(F)F)cc4)c4ccc(OC(F)(F)F)cc4)CC3)cc2)n1 (stereo not drawn) [Compound 304] | 100 | 95 |
| CCn1nnc(-c2ccc(CN3CCC(C(OCc4ccc(OC(F)(F)F)cc4)c4ccc(OC(F)(F)F)cc4)CC3)cc2)n1 (stereo not drawn) [Compound 305] | 100 | 95 |
| Cn1nnc(-c2ccc(COC(c3ccc(OC(F)(F)F)cc3)C3CCN(Cc4ccc(-c5nnn(C)n5)cc4)CC3)cc2)n1 (stereo not drawn) [Compound 306] | 33 | 59 |
| CCn1nnc(-c2ccc(CN3CCC(C(OC(=O)c4ccc(C(F)(F)F)cc4)c4ccc(OC(F)(F)F)cc4)CC3)cc2)n1 (stereo not drawn) [Compound 307] | 100 | 92 |
| CCn1nnc(-c2ccc(CN3CCC(C(OC(=O)c4ccc(OC(F)(F)F)cc4)c4ccc(OC(F)(F)F)cc4)CC3)cc2)n1 (stereo not drawn) [Compound 308] | 100 | 92 |
| Cn1nnc(-c2ccc(CN3CCC(C(NCc4ccccc4Cl)c4ccc(OC(F)(F)F)cc4)CC3)cc2)n1 (stereo not drawn) [Compound 309] | 100 | 100 |
| Cn1nnc(-c2ccc(CN3CCC(C(NCc4cccc(Cl)c4)c4ccc(OC(F)(F)F)cc4)CC3)cc2)n1 (stereo not drawn) [Compound 310] | 100 | 100 |
| Cn1nnc(-c2ccc(CN3CCC(C(NCc4ccc(Cl)cc4)c4ccc(OC(F)(F)F)cc4)CC3)cc2)n1 (stereo not drawn) [Compound 311] | 100 | 100 |
| Cn1nnc(-c2ccc(CN3CCC(C(NCc4ccc(Br)cc4)c4ccc(OC(F)(F)F)cc4)CC3)cc2)n1 (stereo not drawn) [Compound 312] | 100 | 100 |
| Cn1nnc(-c2ccc(CN3CCC(C(NCc4ccccc4F)c4ccc(OC(F)(F)F)cc4)CC3)cc2)n1 (stereo not drawn) [Compound 313] | 100 | 100 |
| Cn1nnc(-c2ccc(CN3CCC(C(NCc4cccc(F)c4)c4ccc(OC(F)(F)F)cc4)CC3)cc2)n1 (stereo not drawn) [Compound 314] | 100 | 100 |
| Cn1nnc(-c2ccc(CN3CCC(C(NCc4ccc(F)cc4)c4ccc(OC(F)(F)F)cc4)CC3)cc2)n1 (stereo not drawn) [Compound 315] | 100 | 100 |
| Cn1nnc(-c2ccc(CN3CCC(C(NCc4ccc(I)cc4)c4ccc(OC(F)(F)F)cc4)CC3)cc2)n1 (stereo not drawn) [Compound 316] | 50 | 100 |
| Cc1ccc(CNC(c2ccc(OC(F)(F)F)cc2)C2CCN(Cc3ccc(-c4nnn(C)n4)cc3)CC2)cc1 (stereo not drawn) [Compound 317] | 100 | 100 |

| Compound | Percent Mortality [%] | Percent Growth Inhibition [%] |
| --- | --- | --- |
| COc1ccc(CNC(c2ccc(OC(F)(F)F)cc2)C2CCN(Cc3ccc(-c4nnn(C)n4)cc3)CC2)cc1 (stereo not drawn) [Compound 318] | 100 | 100 |
| Cn1nnc(-c2ccc(CN3CCC(C(NCc4ccc(OC(F)(F)F)cc4)c4ccc(OC(F)(F)F)cc4)CC3)cc2)n1 (stereo not drawn) [Compound 319] | 100 | 100 |
| Cn1nnc(-c2ccc(CN3CCC(C(NCc4ccc([N+](=O)[O-])cc4)c4ccc(OC(F)(F)F)cc4)CC3)cc2)n1 (stereo not drawn) [Compound 320] | 100 | 100 |
| Cn1nnc(-c2ccc(CN3CCC(C(NC(=O)c4ccccc4)c4ccc(OC(F)(F)F)cc4)CC3)cc2)n1 (stereo not drawn) [Compound 321] | 17 | 95 |
| Cn1nnc(-c2ccc(CN3CCC(C(NC(=O)c4ccccc4Cl)c4ccc(OC(F)(F)F)cc4)CC3)cc2)n1 (stereo not drawn) [Compound 322] | 0 | 78 |
| Cn1nnc(-c2ccc(CN3CCC(C(NC(=O)c4cccc(Cl)c4)c4ccc(OC(F)(F)F)cc4)CC3)cc2)n1 (stereo not drawn) [Compound 323] | 67 | 98 |
| Cn1nnc(-c2ccc(CN3CCC(C(NC(=O)c4ccc(Cl)cc4)c4ccc(OC(F)(F)F)cc4)CC3)cc2)n1 (stereo not drawn) [Compound 324] | 83 | 99 |
| Cn1nnc(-c2ccc(CN3CCC(C(NC(=O)c4ccc(Br)cc4)c4ccc(OC(F)(F)F)cc4)CC3)cc2)n1 (stereo not drawn) [Compound 325] | 50 | 100 |
| Cn1nnc(-c2ccc(CN3CCC(C(NC(=O)c4ccccc4F)c4ccc(OC(F)(F)F)cc4)CC3)cc2)n1 (stereo not drawn) [Compound 326] | 0 | 93 |
| Cn1nnc(-c2ccc(CN3CCC(C(NC(=O)c4cccc(F)c4)c4ccc(OC(F)(F)F)cc4)CC3)cc2)n1 (stereo not drawn) [Compound 327] | 0 | 99 |
| Cn1nnc(-c2ccc(CN3CCC(C(NC(=O)c4ccc(F)cc4)c4ccc(OC(F)(F)F)cc4)CC3)cc2)n1 (stereo not drawn) [Compound 328] | 0 | 95 |
| Cn1nnc(-c2ccc(CN3CCC(C(NC(=O)c4ccc(I)cc4)c4ccc(OC(F)(F)F)cc4)CC3)cc2)n1 (stereo not drawn) [Compound 329] | 50 | 99 |
| Cc1ccc(C(=O)NC(c2ccc(OC(F)(F)F)cc2)C2CCN(Cc3ccc(-c4nnn(C)n4)cc3)CC2)cc1 (stereo not drawn) [Compound 330] | 33 | 89 |
| COc1ccc(C(=O)NC(c2ccc(OC(F)(F)F)cc2)C2CCN(Cc3ccc(-c4nnn(C)n4)cc3)CC2)cc1 (stereo not drawn) [Compound 331] | 67 | 98 |
| Cn1nnc(-c2ccc(CN3CCC(C(NC(=O)c4ccc(OC(F)(F)F)cc4)c4ccc(OC(F)(F)F)cc4)CC3)cc2)n1 (stereo not drawn) [Compound 332] | 100 | 100 |
| Cn1nnc(-c2ccc(CN3CCC(C(NC(=O)c4ccc([N+](=O)[O-])cc4)c4ccc(OC(F)(F)F)cc4)CC3)cc2)n1 (stereo not drawn) [Compound 333] | 17 | 99 |
| Cn1nnc(-c2ccc(CN3CCC(C(NC(=O)Nc4ccccc4Cl)c4ccc(OC(F)(F)F)cc4)CC3)cc2)n1 (stereo not drawn) [Compound 334] | 100 | 100 |
| Cn1nnc(-c2ccc(CN3CCC(C(NC(=O)Nc4cccc(Cl)c4)c4ccc(OC(F)(F)F)cc4)CC3)cc2)n1 (stereo not drawn) [Compound 335] | 100 | 100 |
| Cn1nnc(-c2ccc(CN3CCC(C(NC(=O)Nc4ccc(Cl)cc4)c4ccc(OC(F)(F)F)cc4)CC3)cc2)n1 (stereo not drawn) [Compound 336] | 100 | 100 |
| Cn1nnc(-c2ccc(CN3CCC(C(NC(=O)Nc4ccc(Br)cc4)c4ccc(OC(F)(F)F)cc4)CC3)cc2)n1 (stereo not drawn) [Compound 337] | 100 | 100 |
| Cn1nnc(-c2ccc(CN3CCC(C(NC(=O)Nc4ccccc4F)c4ccc(OC(F)(F)F)cc4)CC3)cc2)n1 (stereo not drawn) [Compound 338] | 100 | 100 |
| Cn1nnc(-c2ccc(CN3CCC(C(NC(=O)Nc4cccc(F)c4)c4ccc(OC(F)(F)F)cc4)CC3)cc2)n1 (stereo not drawn) [Compound 339] | 50 | 100 |
| Cn1nnc(-c2ccc(CN3CCC(C(NC(=O)Nc4ccc(F)cc4)c4ccc(OC(F)(F)F)cc4)CC3)cc2)n1 (stereo not drawn) [Compound 340] | 83 | 100 |
| Cn1nnc(-c2ccc(CN3CCC(C(NC(=O)Nc4ccc(I)cc4)c4ccc(OC(F)(F)F)cc4)CC3)cc2)n1 (stereo not drawn) [Compound 341] | 100 | 100 |
